This passage reports IC50 and EC50 results from patent US10669272B2, “Substituted naphthyridinone compounds useful as T cell activators” (BRISTOL-MYERS SQUIBB COMPANY, priority 2018, dated 2020).

The target of experiment [1] is T1, human DGKζ (Homo sapiens, UniProt Q13574).
T1 construct: TVMV protease cleavage site (C); Hexa-His (C); made in house; host or cells: Sf9 insect cells (baculovirus, Bac-to-Bac)
Briefly: DGKζ LIPGLO assay (extruded liposome substrate), in vitro DGK inhibition. As to conditions: read-out: DGKz LIPGLO IC50. The format is biochemical.

Experiment [2] deals with Human venous whole blood. Briefly: Human whole blood IFN-γ assay.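 Also: blood from healthy donors exposed to compound for 1 h before stimulation with anti-CD3 and anti-CD28 at 1 µg/mL each, IFN-γ quantified in supernatant by AlphaLISA.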 The experiment is classed as cell-based. As to conditions: human whole blood, read-out: INFg Whole Blood Normalized Agonist EC50.
Method: Human Whole Blood IFN-γ Assay
Human venous whole blood (22.5 μL per well), obtained from healthy donors, was pre-treated with compounds for one hour at 37° C. in a humidified 95% air/5% CO2 incubator. The blood was stimulated with 2.5 μL anti-human CD3 and anti-CD28 mAb at a final concentration of 1 μg/mL each for 24 hours at 37° C. IFN-γ in the supernatants was measured using AlphLISA kit (Cat # AL217).
For experiment [3], the target named is T2, human DGKα (Homo sapiens, UniProt P23743).
T2 construct: TVMV protease cleavage site (C); Hexa-His (C); made in house; host or cells: Sf9 insect cells (baculovirus, Bac-to-Bac)
T2 sequence (P23743 with tags, fused parts or gaps): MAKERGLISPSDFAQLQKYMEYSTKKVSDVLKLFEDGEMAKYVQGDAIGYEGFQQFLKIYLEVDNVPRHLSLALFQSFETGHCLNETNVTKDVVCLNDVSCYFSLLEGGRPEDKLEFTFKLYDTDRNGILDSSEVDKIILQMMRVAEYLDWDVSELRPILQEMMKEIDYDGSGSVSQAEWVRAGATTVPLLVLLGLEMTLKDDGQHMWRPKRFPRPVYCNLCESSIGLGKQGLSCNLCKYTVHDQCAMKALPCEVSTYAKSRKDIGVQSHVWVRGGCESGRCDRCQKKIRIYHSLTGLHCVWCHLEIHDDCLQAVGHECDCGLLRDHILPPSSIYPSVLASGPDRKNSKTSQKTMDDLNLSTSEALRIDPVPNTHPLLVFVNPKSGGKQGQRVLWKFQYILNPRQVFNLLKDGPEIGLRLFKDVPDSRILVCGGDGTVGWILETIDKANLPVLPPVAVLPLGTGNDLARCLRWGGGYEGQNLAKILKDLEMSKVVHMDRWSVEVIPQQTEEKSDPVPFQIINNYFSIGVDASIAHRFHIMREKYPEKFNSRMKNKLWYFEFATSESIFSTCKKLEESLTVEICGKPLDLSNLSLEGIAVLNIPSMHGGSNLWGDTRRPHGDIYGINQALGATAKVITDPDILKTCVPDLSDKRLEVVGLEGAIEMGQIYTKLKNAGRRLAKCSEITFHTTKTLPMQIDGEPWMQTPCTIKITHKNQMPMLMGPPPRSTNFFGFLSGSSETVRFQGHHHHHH
Briefly: DGKα LIPGLO assay (extruded liposome substrate), in vitro DGK inhibition. The experiment is classed as biochemical. As to conditions: read-out: DGKa LIPGLO IC50.

Setting [4] is: Homo sapiens, 24 h, anti-CD3 plus anti-CD28, 24 hours, 3 μM reference compound = 100% activation.
The mark [5] stands for this setting: anti-CD3 plus anti-CD28, 24 hours, 3 μM reference compound = 100% activation.
Where [6] appears, read: Homo sapiens, 24 h, normalized to 3 μM reference compound with anti-CD3 plus anti-CD28 as 100% activation.
Setting [7] is: normalized to 3 μM reference compound with anti-CD3 plus anti-CD28 as 100% activation.

Structures are written as SMILES. Where two headings read alike, the source gives them in different places.

T1 sequence (Q13574 with tags, fused parts or gaps isoform Q13574-4): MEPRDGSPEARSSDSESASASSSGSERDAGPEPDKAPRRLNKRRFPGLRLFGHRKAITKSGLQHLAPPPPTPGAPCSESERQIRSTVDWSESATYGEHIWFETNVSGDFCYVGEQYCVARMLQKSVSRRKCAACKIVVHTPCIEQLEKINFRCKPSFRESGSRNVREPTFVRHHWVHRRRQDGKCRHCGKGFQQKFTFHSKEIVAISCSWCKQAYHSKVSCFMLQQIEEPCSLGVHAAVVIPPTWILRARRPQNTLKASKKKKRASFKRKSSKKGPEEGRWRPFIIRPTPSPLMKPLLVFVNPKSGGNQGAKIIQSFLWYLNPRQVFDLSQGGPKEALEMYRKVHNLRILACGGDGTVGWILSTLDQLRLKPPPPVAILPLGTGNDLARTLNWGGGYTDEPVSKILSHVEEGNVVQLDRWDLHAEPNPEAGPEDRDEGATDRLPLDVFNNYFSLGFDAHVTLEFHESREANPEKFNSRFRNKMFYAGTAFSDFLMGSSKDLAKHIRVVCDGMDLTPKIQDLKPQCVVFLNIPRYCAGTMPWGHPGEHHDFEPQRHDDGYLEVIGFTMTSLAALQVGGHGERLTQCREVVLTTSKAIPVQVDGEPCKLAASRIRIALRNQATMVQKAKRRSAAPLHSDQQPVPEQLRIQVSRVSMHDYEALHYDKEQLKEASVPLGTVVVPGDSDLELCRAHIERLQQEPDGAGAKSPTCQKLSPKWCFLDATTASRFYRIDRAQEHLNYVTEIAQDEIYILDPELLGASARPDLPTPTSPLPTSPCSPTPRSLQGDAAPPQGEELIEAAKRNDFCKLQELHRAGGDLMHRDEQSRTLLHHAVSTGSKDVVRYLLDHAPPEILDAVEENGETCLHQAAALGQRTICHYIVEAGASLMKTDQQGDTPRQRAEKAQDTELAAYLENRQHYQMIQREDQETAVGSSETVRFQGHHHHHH

In general, IC50 refers to the midpoint of a concentration-inhibition curve. What is called EC50 is the concentration at which the effect is half-maximal. On to `C[C@@H]1CN(c2c(C#N)c(=O)n(C)c3ccc(C#N)nc23)CCN1Cc1ccc(F)c(F)c1` [Example 987], for which the IC50 in experiment [1] (DGKζ liposome (LIPGLO) assay) stood at 1800 nM; in experiment [3] (DGKα liposome (LIPGLO) assay), 2900 nM. The EC50 in experiment [2] (setting [4]) amounted to 7300 nM.

With `C[C@@H]1CN(c2c(C#N)c(=O)n(C)c3ccc(C#N)nc23)[C@@H](C)CN1C(c1cccc(F)c1)c1ccc(C(F)(F)F)cn1` (single isomer, unassigned) [Example 841], the values for the IC50 in experiment [1] (DGKζ liposome (LIPGLO) assay) and in experiment [3] (DGKα liposome (LIPGLO) assay) were 11000 nM and 83000 nM, respectively. Moreover, the EC50 in experiment [2] (setting [5]) worked out at 3300 nM.

`COc1ccc(C(C)N2C[C@H](C)N(c3cc(=O)n(C)c4ccc(C#N)nc34)C[C@H]2C)cc1OCCN1CCOCC1` (stereo partly drawn) [Example 1305]: the figures for the IC50 in experiment [1] (liposome (LIPGLO) assay) and in experiment [3] (liposome (LIPGLO) assay) were 7500 nM and 130000 nM, respectively. Besides, the EC50 in experiment [2] (setting [6]) stood at 20000 nM.

As for `CC(c1ccc2c(c1)OC(F)(F)O2)N1C[C@H](C)N(c2cc(=O)n(C)c3ccc(C#N)nc23)C[C@H]1C` (single isomer, unassigned) [Example 654], the results for the IC50 in experiment [1] (liposome (LIPGLO) assay) and in experiment [3] (liposome (LIPGLO) assay) were 130 nM and 2000 nM, respectively. Further, the EC50 in experiment [2] (setting [7]) was determined as 400 nM.

With `CCOc1cc(F)c(CN2C[C@H](C)N(c3cc(=O)n(C)c4ccc(C#N)nc34)C[C@H]2C)c(F)c1` [Example 1275], the IC50 turned out to be 260 nM in experiment [1] (liposome (LIPGLO) assay) and 140 nM in experiment [3] (liposome (LIPGLO) assay). Besides, the EC50 in experiment [2] (setting [6]) amounted to 190 nM.

On to `CC(c1ccc(OC(F)F)cc1)N1C[C@H](C)N(c2c(C#N)c(=O)n(C)c3ccc(C#N)nc23)C[C@H]1C` (single isomer, unassigned) [Example 1375], for which the IC50 stood at 890 nM in experiment [1] (liposome (LIPGLO) assay) and 190 nM in experiment [3] (liposome (LIPGLO) assay). Also, the EC50 in experiment [2] (setting [6]) worked out at 1800 nM.

For `C[C@@H]1CN(c2c(F)c(=O)n(C)c3ccc(C#N)nc23)[C@@H](C)CN1C(c1ccc(F)cc1)c1c(F)cccc1F` (single isomer, unassigned) [Example 329], the values for the IC50 in experiment [1] (liposome (LIPGLO) assay) and in experiment [3] (liposome (LIPGLO) assay) were 4500 nM and 3600 nM, respectively. Further, the EC50 in experiment [2] (setting [7]) was found to be 13000 nM.

For `C[C@@H]1CN(c2cc(=O)n(C)c3ccc(C#N)nc23)[C@@H](C)CN1C(c1ccc(Cl)cc1)c1ccc(F)c2c1OC(C)(C)C2` (single isomer, unassigned) [Example 458], the IC50 in experiment [1] (liposome (LIPGLO) assay) was determined as 110 nM; in experiment [3] (liposome (LIPGLO) assay) it was 1100 nM. Moreover, the EC50 in experiment [2] (setting [6]) was 510 nM.

For `CC[C@H]1CN(C(C)c2cc(F)c(F)c(F)c2)[C@H](C)CN1c1cc(=O)n(C)c2ccc(C#N)nc12` (single isomer, unassigned) [Example 1383], the IC50 in experiment [1] (liposome (LIPGLO) assay) was 480 nM; in experiment [3] (liposome (LIPGLO) assay) it was 970 nM. Also, the EC50 in experiment [2] (setting [6]) is 7000 nM.

In the case of `C[C@@H]1CN(c2cc(=O)n(C)c3ccc(C#N)nc23)[C@@H](C)CN1C(c1ccc(OC(F)(F)F)cc1)c1ccc(F)cn1` (single isomer, unassigned) [Example 468], the IC50 stood at 1600 nM in experiment [1] (liposome (LIPGLO) assay) and 140 nM in experiment [3] (liposome (LIPGLO) assay). Moreover, the EC50 in experiment [2] (setting [7]) was 1300 nM.

For `CC(C)c1noc(C(c2ccc(F)cc2)N2C[C@H](C)N(c3cc(=O)n(C)c4ccc(C#N)nc34)C[C@H]2C)n1` (single isomer, unassigned) [Example 747], the IC50 in experiment [1] (DGKζ liposome (LIPGLO) assay) stood at 69 nM; in experiment [3] (DGKα liposome (LIPGLO) assay), 300 nM. Besides, the EC50 in experiment [2] (setting [5]) amounted to 180 nM.

Consider `COCc1cc(F)ccc1C(C)N1C[C@H](C)N(c2cc(=O)n(C)c3ccc(C#N)nc23)C[C@H]1C` (single isomer, unassigned) [Example 1314], for which the results for the IC50 in experiment [1] (liposome (LIPGLO) assay) and in experiment [3] (liposome (LIPGLO) assay) were 49 nM and 10000 nM, respectively. Also, in experiment [2] (setting [6]), the EC50 was found to be 460 nM.

Turning to `COc1ccc(C(C)N2C[C@H](C)N(c3cc(=O)n(C)c4ccc(C#N)nc34)C[C@H]2C)cc1C(F)(F)F` (stereo partly drawn) [Example 1250], the IC50 in experiment [1] (liposome (LIPGLO) assay) was 1700 nM; in experiment [3] (liposome (LIPGLO) assay), 20000 nM. The EC50 in experiment [2] (setting [7]) is 18000 nM.

As to `Cc1cc(CN2CCN(c3c(C#N)c(=O)n(C)c4ccc(C#N)nc34)C[C@H]2C)ccc1F` [Example 995], the IC50 in experiment [1] (DGKζ liposome (LIPGLO) assay) was found to be 5600 nM; in experiment [3] (DGKα liposome (LIPGLO) assay) it was 3200 nM. In addition, the EC50 in experiment [2] (setting [4]) was 2500 nM.
